The source of these data is patent US11813270B2, “Nitric oxide-releasing antibacterial compounds, formulations, and methods pertaining thereto” (KNOW BIO, LLC, priority 2020, dated 2023).

One data set has as its system Mycobacterium abscessus. Kind of data set: MIC/MBC assay (CLSI method). To be noted: unit not given. The class given is cell-based.
A further data set deals with Pseudomonas aeruginosa. Description: MIC/MBC assay (CLSI method). The class given is cell-based. To be noted: combined composition of β-cyclodextrin and MTDD.

`C[C@@H]1CCC[C@H](C)N1[N+]([O-])=N[O-].[Na+]` [cis-DMP/NO]: the “NO Load” value (unit not given) was determined as 6.9. The MBC against Mycobacterium abscessus (M. abscessus N0010, clinical) was 4; in the data set with Mycobacterium abscessus (M. abscessus N0016, clinical), 4; against Mycobacterium abscessus (M. abscessus N0017, clinical) it was 4; with Mycobacterium abscessus (M. abscessus N0018, clinical), 4; with Mycobacterium abscessus (M. abscessus N0019, clinical), 4; against Mycobacterium abscessus (M. abscessus N0020, clinical), 2. Further, in the data set with Mycobacterium abscessus (M. abscessus N0046), the MBC is on record as 4. In addition, the MIC was determined as 1 in the data set on Mycobacterium abscessus (M. abscessus N0010, clinical); 2 against Mycobacterium abscessus (M. abscessus N0016, clinical); 2 against Mycobacterium abscessus (M. abscessus N0017, clinical); 1 in the data set on Mycobacterium abscessus (M. abscessus N0018, clinical); 2 against Mycobacterium abscessus (M. abscessus N0019, clinical); 1 in the data set with Mycobacterium abscessus (M. abscessus N0020, clinical). The molecule further came in with an MIC in the data set with Mycobacterium abscessus (M. abscessus N0046) of 2.

As to `OC[C@H]1O[C@@H]2O[C@H]3[C@H](O)[C@@H](O)[C@@H](O[C@H]4[C@H](O)[C@@H](O)[C@@H](O[C@H]5[C@H](O)[C@@H](O)[C@@H](O[C@H]6[C@H](O)[C@@H](O)[C@@H](O[C@H]7[C@H](O)[C@@H](O)[C@@H](O[C@H]8[C@H](O)[C@@H](O)[C@@H](O[C@H]1[C@H](O)[C@H]2O)O[C@@H]8CO)O[C@@H]7CO)O[C@@H]6CO)O[C@@H]5CO)O[C@@H]4CO)O[C@@H]3CO` [0% MTDD, β-cyclodextrin], the NO-loading (combined composition of β-cyclodextrin and MTDD) amounted to 0.0 µmol/mg. The “MIC against P. aeruginosa” value with Pseudomonas aeruginosa was above 6250 µg/mL.
